# ChEMBL document CHEMBL6134909 (Eur J Med Chem, 2025)
# Activity calls are given as the source filed them. The rule behind the calls is not given here.
# Assays:
# Influenza A virus [1] = test: (§1) Anti-viral activity against Influenza A virus H3N2 A/Hong Kong/11/1968 infected in human A549 cells assessed as decrease in viral replication at 1 uM incubated with compound and virus for 1 hr followed by inoculum removal and media replacement with compound measured after 48 hrs by extracting viral supernatant from cells and transferring supernatant to MDCK cells for measuring plaque formation; type: functional, organism-based; conditions: time 49.0 hrs
# Influenza A virus [2] = test: as §1, with “log reduction” for “decrease”, “titer” for “replication”; type: functional; conditions: time 49 hrs
SMILES,Activity (Influenza A virus [1]),log10PFU/ml (Influenza A virus [2])
COc1ccc(-c2nc3ncccn3c2NC2CCCCC2)cc1,Active,
CCOC(=O)c1c(CSc2ccccc2)n(C)c2cc(Br)c(O)c(CN(C)C)c12 [UMIFENOVIR],Active,1.5
Fc1ccc(-c2nc3ncccn3c2NC2CCCCC2)cc1N1CCOCC1,Active,1.5
Fc1ccc(-c2nc3ncccn3c2NC2CCCCC2)cc1F,Active,
COCOc1ccc(-c2nc3ncccn3c2NC2CCCCC2)c(F)c1,Active,1.5
Clc1cnc2nc(-c3ccccc3)c(NC3CCCCC3)n2c1,Active,1.5
CN1CCN(c2ccc(-c3nc4ncc(Cl)cn4c3NC3CCCCC3)c(F)c2)CC1,Active,
Cc1cc(C)n2c(NC3CCCCC3)c(-c3ccnc(Cl)c3)nc2n1,Active,
Oc1ccc(-c2nc3ncccn3c2NC2CCCCC2)c(F)c1,Active,1.5
COc1cc(OC)cc(-c2nc3ncccn3c2NC2CCCCC2)c1,Active,1.5
Fc1cc(OCc2ccc(C(F)(F)F)cc2)ccc1-c1nc2ncccn2c1NC1CCCCC1,Active,1.5
